Measured values published in patent US20240207265A1, “TREATMENT OF CNS DISEASES WITH sGC STIMULATORS” (Tisento Therapeutics Inc., priority 2021, published 2024).

Test system: cGMP
Assay: cGMP concentration in rat CSF after single oral dose (CSF biomarker)
Type: in vivo
Description: Rats were administered a single dose of either vehicle or sGC stimulator (1, 3, 10 or 30 mg/kg). One, two and six hours after administration, CSF samples were collected and analyzed to determine cGMP and compound concentrations and plasma samples were collected and analyzed to determine compound concentration. Each rat was sampled one time or multiple times with 3 or more days in between each dosing. The day before the experiment rats were fasted overnight with ad libitum access to water.
On the day of the experiment, compound and cyclic guanosine monophosphate (cGMP) concentrations in rat CSF was determined following oral dosing. Male CD rats implanted with an intracisternal cannula (250-275 g) were used for these studies. Rats were single housed under controlled conditions of temperature (21±1° C.), relative humidity (36±1%) and placed in a 12-hr light-dark cycle (lights on at 6:00 AM and off at 6:00 PM) room at SmartLabs vivarium (21 Erie Street, Cambridge, MA) under protocol MIL-110. Animals were allowed ad libitum access to chow (LabDiet Prolab Isopro RMH 3000, St. Louis, MO) and water. The rats were dosed with 0 mg/kg (vehicle), 1 mg/kg, 3 mg/kg, 10 mg/kg, or 30 mg/kg of a compound of the invention formulated as a suspension in 0.5% methylcellulose, 0.5% Tween80 or as a solution in MilliQ water. […]
Plasma and CSF samples were collected under isoflurane anesthesia as follows: samples of CSF and blood were collected at 1, 2, and 6 hours post-dosing. […] Plasma and CSF was collected and analyzed for the presence of a compound.
The compound of the invention, cGMP and the internal standard were extracted from plasma and CSF by precipitation. Samples were analyzed using liquid chromatography (LC) with tandem mass spectrometric detection (MS/MS) using electrospray ionization. […] CSF cGMP data were graphed using Graphpad Prism, version 8.4.3 and are expressed as means±S.E.M. Data were analyzed with a Mixed-effects analysis followed by Dunnett's multiple comparison test comparing to vehicle-treated rats within timepoint. […]

In the case of `Cc1cc(F)c(Cc2nc(-c3ncc(F)c(O)n3)cn3ccnc23)cc1F` [Compound I-14, 5-fluoro-2-(8-(2,5-difluoro-4-methylbenzyl)imidazo[1,2-a]pyrazin-6-yl)pyrimidin-4-ol], the “concentration of cGMP in rat CSF vs vehicle-treated rats” value (“concentration … vs vehicle-treated rats” below) (1 mg/kg PO as sodium salt, two hours after dosing) is reported as “significantly higher cGMP in CSF”, the “concentration … vs vehicle-treated rats” value (3 mg/kg PO as sodium salt, one and two hours after dosing) is reported as “significantly higher concentrations of cGMP in the CSF” and the “concentration … vs vehicle-treated rats” value (10 or 30 mg/kg PO as sodium salt, 1, 2 and 6 hours postdose) is reported as “significantly higher cGMP in the CSF”.
